# Data as given in ChEMBL document CHEMBL5214942, “Discovery of biphenyls bearing thiobarbiturate fragment by structure-based strategy as Mycobacterium tuberculosis protein tyrosine phosphatase B inhibitors” (Bioorg Med Chem, 2022).
# Activity calls are given as the source filed them. The rule behind the calls is not given here.
# Key:
# [1] = target: T1, Phosphotyrosine-protein phosphatase PTPB (Mycobacterium tuberculosis) (UniProt P96830); assay: Inhibition of recombinant Mycobacterium tuberculosis H37Rv MptpB using pNPP as substrate incubated for 10 mins at 50 uM and measured by spectrophotometric method relative to control
# T1 sequence (whole entry): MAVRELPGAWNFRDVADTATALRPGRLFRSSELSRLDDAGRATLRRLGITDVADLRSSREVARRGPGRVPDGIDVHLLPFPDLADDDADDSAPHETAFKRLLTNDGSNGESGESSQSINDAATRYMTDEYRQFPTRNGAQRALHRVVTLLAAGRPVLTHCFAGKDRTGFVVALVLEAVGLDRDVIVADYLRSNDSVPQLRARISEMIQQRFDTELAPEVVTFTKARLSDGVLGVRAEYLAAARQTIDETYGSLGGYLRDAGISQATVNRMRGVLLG
# [2] = target: T2, Phosphotyrosine-protein phosphatase PTPB (Mycobacterium tuberculosis, UniProt P96830); assay: Inhibition of recombinant Mycobacterium tuberculosis H37Rv MptpB using pNPP as substrate incubated for 10 mins and measured by spectrophotometric method
# T2 sequence (P96830 whole entry): T1 sequence (whole entry)
# [3] = test system: Mycobacterium tuberculosis; assay: Antimycobacterial activity against Mycobacterium tuberculosis H37Rv measured by microplate alamar blue assay; format: functional
# [4] = Cytotoxicity against African green monkey Vero cells after 48 hrs by MTT assay; format: toxicity, cell-based; settings: African green monkey (Chlorocebus sabaeus)
# [5] = Cytotoxicity against mouse J774.A1 cells after 48 hrs by MTT assay; format: toxicity, cell-based
# [6] = target: T3, Low molecular weight protein-tyrosine phosphatase A (Mycobacterium tuberculosis) (UniProt P9WIA1); assay: Inhibition of recombinant Mycobacterium tuberculosis H37Rv MptpA using pNPP as substrate at 50 uM incubated for 10 mins and measured by spectrophotometric method relative to control
# T3 sequence (whole entry): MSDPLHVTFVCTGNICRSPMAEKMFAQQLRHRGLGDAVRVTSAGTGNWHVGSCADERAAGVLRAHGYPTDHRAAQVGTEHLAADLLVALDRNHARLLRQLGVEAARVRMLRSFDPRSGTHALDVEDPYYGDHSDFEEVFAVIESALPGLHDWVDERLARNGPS
# [7] = target: T4, Tyrosine-protein phosphatase non-receptor type 1 (Homo sapiens) (UniProt P18031); assay: Inhibition of recombinant human PTP1B using pNPP as substrate preincubated for 5 mins followed by substrate addition assessed as reduction in p-nitrophenol release at 50 uM relative to control
# T4 sequence (whole entry): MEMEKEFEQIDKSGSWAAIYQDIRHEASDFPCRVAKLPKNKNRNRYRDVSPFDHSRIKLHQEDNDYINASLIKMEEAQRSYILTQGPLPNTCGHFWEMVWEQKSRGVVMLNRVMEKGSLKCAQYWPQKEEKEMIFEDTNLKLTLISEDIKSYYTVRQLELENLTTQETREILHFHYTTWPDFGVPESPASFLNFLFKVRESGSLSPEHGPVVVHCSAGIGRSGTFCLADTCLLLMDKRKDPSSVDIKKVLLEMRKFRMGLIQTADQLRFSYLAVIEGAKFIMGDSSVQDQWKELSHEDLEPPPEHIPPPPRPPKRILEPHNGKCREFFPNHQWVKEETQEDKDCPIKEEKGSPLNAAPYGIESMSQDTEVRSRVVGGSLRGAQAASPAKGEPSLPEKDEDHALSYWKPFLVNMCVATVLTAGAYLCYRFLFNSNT
# [8] = target: T5, Tyrosine-protein phosphatase non-receptor type 1 (Homo sapiens, UniProt P18031); assay: Inhibition of recombinant human PTP1B using pNPP as substrate preincubated for 5 mins followed by substrate addition assessed as reduction in p-nitrophenol release
# T5 sequence (P18031 whole entry): T4 sequence (whole entry)
# [9] = target: T6, Low molecular weight protein-tyrosine phosphatase A (Mycobacterium tuberculosis, UniProt P9WIA1); assay: Inhibition of recombinant Mycobacterium tuberculosis H37Rv MptpA using pNPP as substrate incubated for 10 mins and measured by spectrophotometric method
# T6 sequence (P9WIA1 whole entry): T3 sequence (whole entry)
# [10] = target: T2, Phosphotyrosine-protein phosphatase PTPB; assay: Non-competitive inhibition of recombinant Mycobacterium tuberculosis H37Rv MptpB using pNPP as substrate
# [11] = test system: Mycobacterium tuberculosis; assay: Antimycobacterial activity against Mycobacterium tuberculosis infected in mouse J774.A1 cells assessed as reduction in intracellular bacterial burden at 5 ug/ml measured by colony counting method; format: functional; design: scale not given: the % may be the effect or the level left; settings: dose 5 µg/ml
# [12] = test system: Mycobacterium tuberculosis; assay: Antimycobacterial activity against Mycobacterium tuberculosis infected in mouse J774.A1 cells assessed as reduction in intracellular bacterial burden at 1 to 10 ug/ml measured by colony counting method; format: functional, organism-based; settings: dose 1-10 µg/ml
SMILES,inhibition [1],IC50 [2],MIC [3],IC50 at 48 h [4],IC50 at 48 h [5],other results
O=C1NC(=S)NC(=O)C1=Cc1cc(-c2cc3ccccc3s2)ccc1OCc1ccc(Cl)cc1,57.5%,,,,,
COc1ccc(-c2ccc(OCc3ccc(Cl)cc3)c(C=C3C(=O)NC(=S)NC3=O)c2)cc1,42.7%,,,,,
C/C=C(\C)[C@@H]1C(C)=C[C@@H]2CC(C)=CC[C@H]2[C@@H]1/C=C/C=C(\C)[C@@H](O)[C@@H](C)C(=O)O,,1.05 µM,,,,
O=C1NC(=S)NC(=O)C1=Cc1cc(-c2ccc3occc(=O)c3c2)ccc1OCc1ccc(Cl)cc1,73%,,,,,
CN1C(=O)C(=Cc2cc(-c3cc(Cl)c(O)c(Cl)c3)ccc2OCc2ccc(Cl)cc2)C(=O)N(C)C1=O,51.9%,,,,,
O=C1NC(=S)NC(=O)C1=Cc1ccc(OCc2ccc(Cl)cc2)cc1-c1cc(Cl)c(O)c(Cl)c1,95%,3.62 µM,> 32 µg/mL,> 64 µg/mL,57 µg/mL,inhibition [6]: 49%; inhibition [7]: 78.6%; IC50 [8]: 34.1 µM
O=C1NC(=S)NC(=O)C1=Cc1cc(-c2cc(Cl)c(O)c(Cl)c2)ccc1OCc1cc(F)cc(F)c1,89.1%,5.32 µM,> 32 µg/mL,> 64 µg/mL,15.4 µg/mL,inhibition [7]: 92.3%; IC50 [8]: 6.28 µM
Cc1onc(C(=O)O)c1-c1cccc(-c2cc(Cl)c(O)c(Cl)c2)c1,,2.98 µM,,,,
O=C1NC(=S)NC(=O)C1=Cc1cc(-c2ccc(C(F)(F)F)cc2)ccc1OCc1ccc(Cl)cc1,86.4%,3.82 µM,> 32 µg/mL,> 64 µg/mL,14.8 µg/mL,inhibition [6]: 74.2%; IC50 [9]: 20 µM; inhibition [7]: 81.4%; IC50 [8]: 3.93 µM
O=C1NC(=S)NC(=O)C1=Cc1cc(Br)ccc1OCc1ccc(Cl)cc1,63%,22.4 µM,,,,
O=C1NC(=S)NC(=O)C1=Cc1cc(-c2ccc(O)c(Cl)c2)ccc1OCc1ccc(Cl)cc1,72.7%,,,,,
O=C1NC(=O)C(=Cc2cc(-c3cc(Cl)c(O)c(Cl)c3)ccc2OCc2ccc(Cl)cc2)C(=O)N1,16.2%,,,,,
O=C1NC(=S)NC(=O)C1=Cc1cc(OCc2ccc(Cl)cc2)cc(-c2cc(Cl)c(O)c(Cl)c2)c1,91.6%,4.7 µM,> 32 µg/mL,> 64 µg/mL,39.9 µg/mL,inhibition [6]: 39.7%; inhibition [7]: 93.7%; IC50 [8]: 7.81 µM
NNC(=O)c1ccncc1 [ISONIAZID],,,0.072 µg/mL,> 64 µg/mL,> 64 µg/mL,
O=C1NC(=S)NC(=O)C1=Cc1cc(-c2ccc(Cl)cc2)ccc1OCc1ccc(Cl)cc1,77.5%,,,,,
O=C1NC(=S)NC(=O)C1=Cc1ccc(OCc2ccc(Cl)cc2)c(-c2cc(Cl)c(O)c(Cl)c2)c1,84.4%,5.95 µM,> 32 µg/mL,> 64 µg/mL,13.9 µg/mL,inhibition [6]: 69.6%; inhibition [7]: 98.2%; IC50 [8]: 3.43 µM
O=C1NC(=S)NC(=O)C1=Cc1cc(-c2ccccc2)ccc1OCc1ccc(Cl)cc1,43.9%,,,,,
O=C1NC(=S)NC(=O)C1=Cc1cc(-c2cc(Cl)c(O)c(Cl)c2)ccc1OCc1ccc(Cl)cc1,95.9%,1.18 µM,> 32 µg/mL,> 64 µg/mL,13 µg/mL,inhibition [6]: 86.4%; IC50 [9]: 8.97 µM; inhibition [7]: 98.3%; IC50 [8]: 5.16 µM; Ki [10]: 1.01 µM; Activity [11]: 90%; Activity [12]: Active
CO[C@H]1/C=C/O[C@@]2(C)Oc3c(C)c(O)c4c(O)c(c(/C=N/N5CCN(C)CC5)c(O)c4c3C2=O)NC(=O)/C(C)=C\C=C\[C@H](C)[C@H](O)[C@@H](C)[C@@H](O)[C@@H](C)[C@H](OC(C)=O)[C@@H]1C [RIFAMPIN],,,0.037 µg/mL,> 64 µg/mL,> 64 µg/mL,
CN1C(=O)C(=Cc2cc(-c3cc(Cl)c(O)c(Cl)c3)ccc2OCc2ccc(Cl)cc2)C(=O)N(C)C1=S,87%,14.1 µM,,,,
O=C(C(c1ccccc1)S(=O)(=O)O)N1CCCC2CCCCC21 (configuration not stated),,0.018 µM,,,,
O=C1NC(=S)NC(=O)C1=Cc1cc(-c2cc(Cl)c(O)c(Cl)c2)ccc1OCc1ccccc1,95.4%,3.81 µM,25.1 µg/mL,> 64 µg/mL,3.44 µg/mL,inhibition [6]: 14.6%; inhibition [7]: 87.7%; IC50 [8]: 27.3 µM
O=C1NC(=S)NC(=O)C1=Cc1cc(-c2ccc(OC(F)(F)F)cc2)ccc1OCc1ccc(Cl)cc1,65%,,,,,
COC(=O)c1ccc(-c2ccc(OCc3ccc(Cl)cc3)c(C=C3C(=O)NC(=S)NC3=O)c2)cc1,63.3%,,,,,
O=C1NC(=S)NC(=O)C1=Cc1cc(-c2ccc(O)c(F)c2)ccc1OCc1ccc(Cl)cc1,65%,,,,,
O=C1NC(=S)NC(=O)C1=Cc1c(OCc2ccc(Cl)cc2)cccc1-c1cc(Cl)c(O)c(Cl)c1,45.5%,,,,,
Cc1cc(-c2ccc(OCc3ccc(Cl)cc3)c(C=C3C(=O)NC(=S)NC3=O)c2)cc(C)c1O,59.2%,,,,,
O=C1NC(=S)NC(=O)C1=Cc1ccc(-c2cc(Cl)c(O)c(Cl)c2)c(OCc2ccc(Cl)cc2)c1,75.2%,,,,,
